Read-outs that look alike come from different tables or passages of the source.
System: HIV-1 LAI envelope single-round infectious reporter virus
Experiment: Single-round infectious HIV-1 LAI luciferase reporter virus infection of MT2 cells
Assay type: cell-based
Conditions: Human immunodeficiency virus 1, MT2, 72 h
From the text: Virus Production • Human embryonic Kidney cell line, 293T (HEK 293T), was propagated in Dulbecco's Modified Eagle Medium (Invitrogen, Carlsbad, Calif.) containing 10% fetal bovine serum (FBS, Sigma, St. Louis, Mo.). The human T-cell leukemia cell MT2 (AIDS Research and Reference Reagent Program, Cat. 237) was propagated in RPMI 1640 (Invitrogen, Carlsbad, Calif.) containing 10% fetal bovine serum (FBS, Hyclone, Logan, Utah)
Virus Infection • Single-round infectious reporter virus was produced by co-transfecting HEK 293T cells with plasmide expressing the HIV-1 LAI envelope along with a plasmid containing an HIV-1 LAI proviral cDNA with the envelope gene replaced by a firefly luciferase reporter gene (Chen et al., Ref 41). Transfections were performed using lipofectAMINE PLUS reagent as described by the manufacturer (Invitrogen, Carlsbad, Calif.). Experimental Procedure • 1. MT2 cells were plated in black, 384 well plates at a cell density of 5×10^3 cells per well in 25 μl RPMI 1640 containing 10% FBS. • 2. Compound (diluted in dimethylsulfoxide and growth medium) was added to cells at 12.5 μl/well, so that the final assay concentration would be ≦50 nM. • 3. 12.5 μl of single-round infectious reporter virus in Dulbecco's Modified Eagle Medium was added to the plated cells and compound at an approximate multiplicity of infection (MOI) of 0.01, resulting in a final volume of 50 μl per well. • 4. Virus-infected cells were incubated at 37 degrees Celsius in a CO2 incubator and harvested 72 h after infection. • 5. Viral infection was monitored by measuring luciferase expression in the infected cells using a luciferase reporter gene assay kit (Steady-Glo, Promega, Madison, Wis.) as described by the manufacturer. Luciferase activity was then quantified by measuring luminescence using an EnVision Multilabel Plate Readers (PerkinElmer, Waltham, Mass.). • 6. The percent inhibition for each compound was calculated by quantifying the level of luciferase expression in cells infected in the presence of each compound as a percentage of that observed for cells infected in the absence of compound and subtracting such a determined value from 100. • 7. An EC50 provides a method for comparing the antiviral potency of the compounds of this disclosure. The effective concentration for fifty percent inhibition (EC50) was calculated with the Microsoft Excel Xlfit curve fitting software. For each compound, curves were generated from percent inhibition calculated at 10 different concentrations by using a four parameter logistic model (model 205). Table 1 is the key for the data in Table 2.

[1] = read-out: EC50 Group from Table 1

CON=C(c1ccccc1)N1CCN(C(=O)C(=O)c2c[nH]c3c(-n4ccnn4)ncc(F)c23)CC1 [Compound 2002, 1-(4-fluoro-7-(1H-1,2,3-triazol-1-yl)-1H-pyrrolo[2,3-c]pyridin-3-yl)-2-(4-((methoxyimino)(phenyl)methyl)piperazin-1-yl)ethane-1,2-dione]
EC50 [1]: < 500 nM

O=C(C(=O)N1CCN(C(=S)c2ccccc2)CC1)c1c[nH]c2c(-n3ccnn3)ncc(F)c12 [Compound 2001, 1-(4-fluoro-7-(1H-1,2,3-triazol-1-yl)-1H-pyrrolo[2,3-c]pyridin-3-yl)-2-(4-(phenylcarbonothioyl)piperazin-1-yl)ethane-1,2-dione]
EC50: 0.027 nM | EC50 [1]: < 500 nM

CON=C(c1ccccc1)N1CCN(C(=O)C(=O)c2c[nH]c3c(-n4cnc(C)n4)ncc(OC)c23)CC1 [Compound 2004, 1-(4-methoxy-7-(3-methyl-1H-1,2,4-triazol-1-yl)-1H-pyrrolo[2,3-c]pyridin-3-yl)-2-(4-((methoxyimino)(phenyl)methyl)piperazin-1-yl)ethane-1,2-dione]
EC50: 0.019 nM | EC50 [1]: < 500 nM

CN(C)c1ccc(C(=S)N2CCN(C(=O)C(=O)c3c[nH]c4cccc(F)c34)CC2)cc1 [Compound 1001]
EC50 [1]: > 500 nM

CN(C)N=C(c1ccccc1)N1CCN(C(=O)C(=O)c2c[nH]c3c(-n4ccnn4)ncc(F)c23)CC1 [Compound 1003]
EC50 [1]: < 500 nM

O=C(C(=O)N1CCN(C(=NO)c2ccccc2)CC1)c1c[nH]c2c(-n3ccnn3)ncc(F)c12 [Compound 2005, 1-(4-fluoro-7-(1H-1,2,3-triazol-1-yl)-1H-pyrrolo[2,3-c]pyridin-3-yl)-2-(4-((hydroxyimino)(phenyl)methyl)piperazin-1-yl)ethane-1,2-dione]
EC50: 0.121 nM | EC50 [1]: < 500 nM

From patent US8685982B2, “Thioamide, amidoxime and amidrazone derivatives as HIV attachment inhibitors” (priority 2011, dated 2014)
